Entries after “also recorded” stand apart in the source; their conditions may differ. Where two headings read alike, the source gives them in different places. Where a SMILES comes first, the peptide text is derived from it. Bridges are numbered along the chain shown (N, C = ends). Roman numbers before positions name the chains, in order. Where no end group is shown, it is not given here. [ ]: non-standard residue; d: D form. AEEA = NCCOCCOCC(=O)O
Assays:
[1] = system: TNFα; assay: TNFα-induced cytotoxicity (control); format: cell-based; conditions: specificity control
Method: (§1) In these assays, CD40L induced CD86 expression in a concentration-dependent manner in the absence of a peptidyl inhibitor of the present invention with an EC50 value of about 9 nM (FIG. 6d, 6e). As a control in these assays, LPS-induced expression of CD86 mediated by the Toll-like receptors TLR 2/4, and TNFα-induced cytoxicity, were also assayed to exclude effects mediated by ligands other than CD40L.

[2] = target: CD40L-induced CD86 expression on primary B-cells (Homo sapiens, UniProt P29965); assay: Inhibition of CD40L-induced CD86 expression on primary B-cells (FACS); format: cell-based; conditions: for inhibition of CD40L-induced CD86 expression (qualitative): figure legends; for EC50: monomeric and dimeric peptides, Table 7, read-out: EC50
Method: In one example, the ability of a peptide, analog or derivative of the invention to inhibit or reduce or delay expression of CD86 on primary B-cells was determined in the presence and absence of the peptides, analogs and derivatives of the invention. In particular, CD86 expression was determined by FACS.
as §1
In a similar series of bioassays, dimeric forms of the CD40L peptide inhibitors were also tested for their ability to inhibit or reduce CD40L-induced expression of CD86 on primary B-cells.

[3] = target: T1, CD40L/CD40-Fc (Homo sapiens, UniProt P29965); assay: Chemiluminescent proximity assay (Alphascreen) of CD40L-CD40 interaction; format: binding; conditions: for inhibition of CD40L-CD40 interaction relative to monomeric peptide controls: qualitative
T1 sequence (P29965 113-261 limits assumed): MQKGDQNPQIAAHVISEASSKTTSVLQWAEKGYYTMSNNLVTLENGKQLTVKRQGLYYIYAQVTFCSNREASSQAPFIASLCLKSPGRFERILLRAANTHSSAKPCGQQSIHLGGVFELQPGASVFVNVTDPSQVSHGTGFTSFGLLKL
Method: In one example, the Alphascreen assay (PerkinElmer) was employed according to the manufacturer's instructions.
Homodimers and heterodimers were also assayed by chemiluminescent proximity assay for their ability to inhibit CD40L-CD40 interaction.

[4] = monomeric and dimeric peptides, Table 5, read-out: EC50

Chain of CD40L-induced CD86 expression on primary B-cells (P29965 whole entry): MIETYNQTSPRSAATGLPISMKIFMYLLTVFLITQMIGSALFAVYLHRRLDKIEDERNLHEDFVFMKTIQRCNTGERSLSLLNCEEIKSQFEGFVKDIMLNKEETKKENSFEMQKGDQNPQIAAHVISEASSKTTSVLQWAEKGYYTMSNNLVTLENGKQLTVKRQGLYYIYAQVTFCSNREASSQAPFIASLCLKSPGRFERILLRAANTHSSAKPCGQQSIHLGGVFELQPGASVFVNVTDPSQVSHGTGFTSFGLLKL
Chain of CD40L-induced CD86 expression on primary B-cells (P25942 21-277 partner): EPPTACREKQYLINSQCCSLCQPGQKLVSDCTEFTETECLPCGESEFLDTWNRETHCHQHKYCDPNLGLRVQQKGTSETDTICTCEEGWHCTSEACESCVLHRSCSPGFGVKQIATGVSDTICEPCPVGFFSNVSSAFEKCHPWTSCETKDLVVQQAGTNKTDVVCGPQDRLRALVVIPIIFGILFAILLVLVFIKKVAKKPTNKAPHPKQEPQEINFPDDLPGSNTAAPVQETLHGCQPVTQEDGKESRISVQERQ

`CC[C@H](C)[C@H](NC(=O)[C@H](CO)NC(=O)[C@H](Cc1c[nH]c2ccccc12)NC(=O)[C@H](CCC(N)=O)NC(=O)[C@@H](NC(=O)[C@@H]1CCCN1C(=O)[C@H](Cc1ccccc1)NC(=O)[C@H](Cc1ccccc1)NC(=O)[C@H](Cc1c[nH]c2ccccc12)NC(=O)CNC(=O)[C@H](Cc1ccc(O)cc1)NC(=O)[C@H](CCCCN)NC(=O)[C@H](CC(C)C)NC(=O)[C@@H](NC(=O)[C@H](Cc1c[nH]cn1)NC(=O)[C@H](CO)NC(=O)[C@H](CCCNC(=N)N)NC(=O)[C@H](Cc1ccc(O)cc1)NC(=O)[C@@H]1CCCN1C(=O)[C@@H](NC(=O)[C@H](Cc1ccccc1)NC(=O)[C@@H]1CCCN1C(=O)[C@@H](N)CC(C)C)C(C)C)C(C)C)C(C)C)C(=O)N[C@@H](Cc1ccccc1)C(=O)N[C@@H](C)C(=O)N[C@H](C(=O)N[C@@H](CC(C)C)C(=O)N1CCC[C@H]1C(=O)N[C@@H](Cc1ccccc1)C(=O)N[C@@H](CCC(N)=O)C(=O)N[C@@H](Cc1ccc(O)cc1)C(=O)N[C@@H](CC(C)C)C(=O)N[C@@H](Cc1c[nH]cn1)C(=O)N[C@@H](CCCNC(=N)N)C(=O)N[C@@H](CO)C(=O)N[C@@H](CCCNC(=N)N)C(=O)O)C(C)C` [CD40L M1_18s] (H-LPFVPYRSHVLKYGWFFPVQWSIFAVLPFQYLHRSR-OH; N-terminus and C-terminus assumed) was tested, and the “inhibition of rTNFα-induced cytoxicity” value ([1]; listed as M1—18*S) was “lack of inhibition” and the “inhibition of rTNFα-induced cytoxicity” value ([1]; listed as M1—18S) was “no significant inhibition”.

With “I: H-C[AEEA]LLLFFFSPPFSIFSFSLTTLS / II: H-C[AEEA]HPFSIKNVFSIWNFFSVY (disulfide I:1-II:1) [Cys_M1_6S-Cys_M1_189S heterodimer]” the “inhibition of CD40L-induced CD86 expression (qualitative)” value (“inhibition … (qualitative)” below) [2] was “enhanced inhibition” and the “inhibition of CD40L-CD40 interaction relative to monomeric peptide controls” value [3] was “enhanced inhibition”.

In the case of `CC[C@H](C)[C@H](NC(=O)[C@H](CO)NC(=O)[C@H](Cc1ccccc1)NC(=O)[C@@H](NC(=O)[C@H](CC(N)=O)NC(=O)[C@H](CCCCN)NC(=O)[C@@H](NC(=O)[C@H](CO)NC(=O)[C@H](Cc1ccccc1)NC(=O)[C@@H]1CCCN1C(=O)[C@H](Cc1c[nH]cn1)NC(=O)COCCOCCNC(=O)[C@@H](N)CSSC[C@H](N)C(=O)NCCOCCOCC(=O)N[C@@H](Cc1c[nH]cn1)C(=O)N1CCC[C@H]1C(=O)N[C@@H](Cc1ccccc1)C(=O)N[C@@H](CO)C(=O)N[C@H](C(=O)N[C@@H](CCCCN)C(=O)N[C@@H](CC(N)=O)C(=O)N[C@H](C(=O)N[C@@H](Cc1ccccc1)C(=O)N[C@@H](CO)C(=O)N[C@H](C(=O)N[C@@H](Cc1c[nH]c2ccccc12)C(=O)N[C@@H](CC(N)=O)C(=O)N[C@@H](Cc1ccccc1)C(=O)N[C@@H](Cc1ccccc1)C(=O)N[C@@H](CO)C(=O)N[C@H](C(=O)N[C@@H](Cc1ccc(O)cc1)C(=O)O)C(C)C)[C@@H](C)CC)C(C)C)[C@@H](C)CC)[C@@H](C)CC)C(C)C)C(=O)N[C@@H](Cc1c[nH]c2ccccc12)C(=O)N[C@@H](CC(N)=O)C(=O)N[C@@H](Cc1ccccc1)C(=O)N[C@@H](Cc1ccccc1)C(=O)N[C@@H](CO)C(=O)N[C@H](C(=O)N[C@@H](Cc1ccc(O)cc1)C(=O)O)C(C)C` [Cys_M1_6S homodimer] (I: H-C[AEEA]HPFSIKNVFSIWNFFSVY-OH / II: H-C[AEEA]HPFSIKNVFSIWNFFSVY-OH; disulfide I:1-II:1; C-terminus assumed), the “inhibition … (qualitative)” value [2] is reported as “enhanced inhibition” and the “inhibition of CD40L-CD40 interaction relative to monomeric peptide controls” value [3] is reported as “enhanced inhibition”.

For `CC[C@H](C)[C@H](NC(=O)[C@H](CO)NC(=O)[C@H](Cc1ccccc1)NC(=O)[C@@H]1CCCN1C(=O)[C@@H]1CCCN1C(=O)[C@H](CO)NC(=O)[C@H](Cc1ccccc1)NC(=O)[C@H](Cc1ccccc1)NC(=O)[C@H](Cc1ccccc1)NC(=O)[C@H](CC(C)C)NC(=O)[C@H](CC(C)C)NC(=O)[C@@H](N)CC(C)C)C(=O)N[C@@H](Cc1ccccc1)C(=O)N[C@@H](CO)C(=O)N[C@@H](Cc1ccccc1)C(=O)N[C@@H](CO)C(=O)N[C@@H](CC(C)C)C(=O)N[C@H](C(=O)N[C@H](C(=O)N[C@@H](CC(C)C)C(=O)N[C@@H](CO)C(=O)O)[C@@H](C)O)[C@@H](C)O` [Peptide M7_189S] (H-LLLFFFSPPFSIFSFSLTTLS-OH), the EC50 [2] was 176 nM and the EC50 [3, 4] was 177 nM.

With HPFSIKNVFSIWNFFSVY [CD40L M1_6s] the “inhibition of rTNFα-induced cytoxicity” value [1] was “lack of inhibition; also recorded: no significant inhibition”.

`CC[C@H](C)[C@H](NC(=O)[C@H](CC(C)C)NC(=O)[C@H](CCC(N)=O)NC(=O)[C@H](Cc1ccccc1)NC(=O)[C@H](Cc1ccc(O)cc1)NC(=O)[C@H](Cc1ccc(O)cc1)NC(=O)[C@H](CCCCN)NC(=O)[C@H](Cc1ccccc1)NC(=O)[C@H](CCCNC(=N)N)NC(=O)[C@H](CO)NC(=O)[C@H](Cc1ccc(O)cc1)NC(=O)[C@H](CCCNC(=N)N)NC(=O)[C@H](Cc1c[nH]c2ccccc12)NC(=O)[C@H](Cc1c[nH]cn1)NC(=O)[C@H](Cc1ccc(O)cc1)NC(=O)[C@H](CCC(N)=O)NC(=O)[C@@H](NC(=O)[C@@H](N)CO)[C@@H](C)CC)C(=O)N[C@@H](Cc1c[nH]c2ccccc12)C(=O)N[C@H](C(=O)N[C@@H](Cc1ccc(O)cc1)C(=O)N[C@@H](Cc1ccc(O)cc1)C(=O)N[C@@H](CO)C(=O)N[C@@H](Cc1c[nH]cn1)C(=O)N[C@H](C(=O)O)C(C)C)C(C)C` [CD40L M1_82s] (H-SIQYHWRYSRFKYYFQLIWVYYSHV-OH; N-terminus and C-terminus assumed) gave an EC50 ([3]; PEGylated Cys-Ser derivative, read-out: EC50(PEGylated) CD40L/CD40-Fc/BAF617) of 120 nM.

Compound `CC[C@H](C)[C@H](NC(=O)[C@@H](NC(=O)[C@H](CCCCN)NC(=O)[C@@H](NC(=O)[C@H](Cc1ccc(O)cc1)NC(=O)[C@H](CC(C)C)NC(=O)[C@@H](N)CC(C)C)C(C)C)C(C)C)C(=O)N[C@@H](CS)C(=O)N[C@@H](Cc1ccccc1)C(=O)N[C@@H](Cc1ccccc1)C(=O)N[C@@H](CS)C(=O)N[C@@H](CCSC)C(=O)N[C@@H](CC(C)C)C(=O)N[C@H](C(=O)N[C@@H](CCC(N)=O)C(=O)N[C@@H](Cc1ccc(O)cc1)C(=O)N[C@@H](CC(N)=O)C(=O)N[C@@H](CC(N)=O)C(=O)N[C@@H](Cc1ccccc1)C(=O)N[C@@H](CCC(N)=O)C(=O)N[C@H](C(=O)N[C@@H](Cc1ccc(O)cc1)C(=O)N[C@@H](CCCCN)C(=O)O)[C@@H](C)O)C(C)C` [CD40L M2_159] (H-LLYVKVICFFCMLVQYNNFQTYK-OH; N-terminus and C-terminus assumed) has an EC50 ([3]; unmodified (non-PEGylated) monomeric base peptide; read-out: EC50nmodified) CD40L/CD40-Fc/BAF617) of 120 nM.

For “I: H-C[AEEA]PPRYNLFFLFRFYSSFRRDYLYF / II: H-C[AEEA]HPFSIKNVFSIWNFFSVY (disulfide I:1-II:1) [Cys_M1_6S-Cys_M1_9S heterodimer]”, the “inhibition … (qualitative)” value [2] was “enhanced inhibition” and the “inhibition of CD40L-CD40 interaction relative to monomeric peptide controls” value [3] was “enhanced inhibition”.

With `CC[C@H](C)[C@H](NC(=O)[C@H](CO)NC(=O)[C@H](Cc1c[nH]c2ccccc12)NC(=O)[C@H](CCC(N)=O)NC(=O)[C@@H](NC(=O)[C@@H]1CCCN1C(=O)[C@H](Cc1ccccc1)NC(=O)[C@H](Cc1ccccc1)NC(=O)[C@H](Cc1c[nH]c2ccccc12)NC(=O)CNC(=O)[C@H](Cc1ccc(O)cc1)NC(=O)[C@H](CCCCN)NC(=O)[C@H](CC(C)C)NC(=O)[C@@H](NC(=O)[C@H](Cc1c[nH]cn1)NC(=O)[C@H](CO)NC(=O)[C@H](CCCNC(=N)N)NC(=O)[C@H](Cc1ccc(O)cc1)NC(=O)[C@@H]1CCCN1C(=O)[C@@H](NC(=O)[C@H](Cc1ccccc1)NC(=O)[C@@H]1CCCN1C(=O)[C@@H](N)CC(C)C)C(C)C)C(C)C)C(C)C)C(=O)N[C@@H](Cc1ccccc1)C(=O)N[C@@H](C)C(=O)N[C@H](C(=O)N[C@@H](CC(C)C)C(=O)N1CCC[C@H]1C(=O)N[C@@H](Cc1ccccc1)C(=O)N[C@@H](CCC(N)=O)C(=O)N[C@@H](Cc1ccc(O)cc1)C(=O)N[C@@H](CC(C)C)C(=O)N[C@@H](Cc1c[nH]cn1)C(=O)N[C@@H](CCCNC(=N)N)C(=O)N[C@@H](CS)C(=O)N[C@@H](CCCNC(=N)N)C(=O)O)C(C)C` [CD40L M1_18] (H-LPFVPYRSHVLKYGWFFPVQWSIFAVLPFQYLHRCR-OH; N-terminus and C-terminus assumed) the “inhibition … (qualitative)” value [2] was “concentration-dependent inhibition” and the IC50 ([2]; monomeric peptide, concentration-dependent) was less than 500 nM.

In the case of `CC(C)C[C@H](NC(=O)[C@H](Cc1ccc(O)cc1)NC(=O)[C@H](CC(=O)O)NC(=O)[C@H](CCCNC(=N)N)NC(=O)[C@H](CCCNC(=N)N)NC(=O)[C@H](Cc1ccccc1)NC(=O)[C@H](CO)NC(=O)[C@H](CO)NC(=O)[C@H](Cc1ccc(O)cc1)NC(=O)[C@H](Cc1ccccc1)NC(=O)[C@H](CCCNC(=N)N)NC(=O)[C@H](Cc1ccccc1)NC(=O)[C@H](CC(C)C)NC(=O)[C@H](Cc1ccccc1)NC(=O)[C@H](Cc1ccccc1)NC(=O)[C@H](CC(C)C)NC(=O)[C@H](CC(N)=O)NC(=O)[C@H](Cc1ccc(O)cc1)NC(=O)[C@H](CCCNC(=N)N)NC(=O)[C@@H]1CCCN1C(=O)[C@@H]1CCCN1)C(=O)N[C@@H](Cc1ccc(O)cc1)C(=O)N[C@@H](Cc1ccccc1)C(=O)O` [CD40L M1_9s] (H-PPRYNLFFLFRFYSSFRRDYLYF-OH; N-terminus and C-terminus assumed), the “inhibition of rTNFα-induced cytoxicity” value [1] is reported as “lack of inhibition; also recorded: no significant inhibition”, the EC50 [2] is reported as 564 nM and the EC50 [3, 4] is reported as 564 nM.
